Assays:
[1] = molecular target: Beta-secretase 1 (Homo sapiens, UniProt P56817); assay: Inhibition of human BACE1 expressed in Escherichia coli BL21(DE3) using Swedish mutant sequence Eu-EVNLDAEFK-Quencher substrate by homogeneous time resolved fluorescence assay
[2] = molecular target: Cathepsin D (Homo sapiens, UniProt P07339); assay: Inhibition of human liver cathepsin D
[3] = Permeability across human Caco-2 cell membrane; format: ADME, cell-based

Chain of Beta-secretase 1 (P56817 whole entry): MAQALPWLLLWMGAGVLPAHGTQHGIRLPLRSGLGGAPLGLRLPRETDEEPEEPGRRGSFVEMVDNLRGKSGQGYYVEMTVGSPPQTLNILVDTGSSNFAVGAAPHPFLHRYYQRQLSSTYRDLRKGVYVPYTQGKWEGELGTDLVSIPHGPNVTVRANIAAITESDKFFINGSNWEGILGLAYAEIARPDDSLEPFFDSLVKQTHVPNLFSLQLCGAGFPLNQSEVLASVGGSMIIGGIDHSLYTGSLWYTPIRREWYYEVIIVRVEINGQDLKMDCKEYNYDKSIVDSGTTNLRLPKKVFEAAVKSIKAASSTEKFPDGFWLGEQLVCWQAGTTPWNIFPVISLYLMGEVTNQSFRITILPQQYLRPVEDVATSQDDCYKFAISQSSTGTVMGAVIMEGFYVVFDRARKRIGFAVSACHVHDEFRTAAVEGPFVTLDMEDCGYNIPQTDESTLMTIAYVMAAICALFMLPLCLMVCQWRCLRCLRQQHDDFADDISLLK
Chain of Cathepsin D (P07339 65-162 limits assumed): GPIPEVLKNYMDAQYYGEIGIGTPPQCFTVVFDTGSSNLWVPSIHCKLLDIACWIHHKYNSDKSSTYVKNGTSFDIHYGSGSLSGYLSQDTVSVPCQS
Chain of Cathepsin D (P07339 169-412 limits assumed): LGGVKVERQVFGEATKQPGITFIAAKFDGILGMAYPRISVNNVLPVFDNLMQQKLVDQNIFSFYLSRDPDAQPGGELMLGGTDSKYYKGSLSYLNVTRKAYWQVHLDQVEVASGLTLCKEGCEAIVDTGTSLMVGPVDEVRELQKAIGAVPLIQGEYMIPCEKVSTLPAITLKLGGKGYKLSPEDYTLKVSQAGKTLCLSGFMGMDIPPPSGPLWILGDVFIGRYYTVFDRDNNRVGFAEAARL

Structure (SMILES) | IC50 [1] [µM] | Ki [2] [µM] | Papp [3] [×10⁻⁶ cm/s]
CC(C)[C@H](NC(=O)CCC(O)(CCc1ccccc1)C(=O)Nc1cc(C(=O)N[C@H](C)c2ccc(F)cc2)cc(N(C)S(C)(=O)=O)c1)C(=O)NCc1ccccc1 (some centres undefined) | > 10 | – | –
C[C@@H](NC(=O)c1cc(NC(=O)CC[C@](O)(Cc2ccccc2)C(=O)N[C@H]2c3ccccc3C[C@H]2O)cc(N(C)S(C)(=O)=O)c1)c1ccccc1 | 2.5 | – | –
CC(C)[C@H](NC(=O)CCC(O)(Cc1ccccc1)C(=O)Nc1cc(C(=O)N[C@H](C)c2ccc(F)cc2)cc(N(C)S(C)(=O)=O)c1)C(=O)NCc1ccc(C(=O)O)cc1 (some centres undefined) | > 10 | – | –
C[C@@H](NC(=O)c1cc(NC(=O)CC[C@@](O)(Cc2ccccc2)C(=O)N[C@H]2c3ccccc3C[C@H]2O)cc(N(C)S(C)(=O)=O)c1)c1ccccc1 | 4.6 | – | –
CC(C)[C@H](NC(=O)C(O)(CCC(=O)Nc1cc(C(=O)N[C@H](C)c2ccccc2)cc(N(C)S(C)(=O)=O)c1)CCc1ccccc1)C(=O)NCc1ccccc1 (some centres undefined) | 0.45 | – | –
CC(C)[C@H](NC(=O)CCC(O)(Cc1ccccc1)C(=O)Nc1cc(C(=O)N[C@H](C)c2ccc(F)cc2)cc(N(C)S(C)(=O)=O)c1)C(=O)Nc1ccc(C(=O)O)cc1 (some centres undefined) | > 10 | – | –
CC(C)[C@H](NC(=O)CCC(O)(Cc1ccccc1)C(=O)Nc1cc(C(=O)N[C@H](C)c2ccc(F)cc2)cc(N(C)S(C)(=O)=O)c1)C(=O)NCc1ccccc1 (some centres undefined) | 5.9 | – | –
COC(=O)c1ccc(NC(=O)[C@@H](NC(=O)CCC(O)(Cc2ccccc2)C(=O)Nc2cc(C(=O)N[C@H](C)c3ccc(F)cc3)cc(N(C)S(C)(=O)=O)c2)C(C)C)cc1 (some centres undefined) | 4 | – | –
COC(=O)c1ccc(CNC(=O)[C@@H](NC(=O)CCC(O)(Cc2ccccc2)C(=O)Nc2cc(C(=O)N[C@H](C)c3ccc(F)cc3)cc(N(C)S(C)(=O)=O)c2)C(C)C)cc1 (some centres undefined) | > 10 | – | –
CC(C)[C@H](NC(=O)CCC(O)(CCc1ccccc1)C(=O)Nc1cc(C(=O)N[C@H](C)c2ccccc2)cc(N(C)S(C)(=O)=O)c1)C(=O)NCc1ccccc1 (some centres undefined) | 5.6 | – | –
C[C@@H](NC(=O)c1cc(NC(=O)C(O)(CCC(=O)N[C@H]2c3ccccc3C[C@H]2O)Cc2ccccc2)cc(N(C)S(C)(=O)=O)c1)c1ccc(F)cc1 (some centres undefined) | > 10 | – | –
CC(C)[C@H](NC(=O)C(O)(CCC(=O)Nc1cc(C(=O)N[C@H](C)c2ccccc2)cc(N(C)S(C)(=O)=O)c1)CCc1ccccc1)C(=O)Nc1ccccc1 (single isomer, unassigned) | 0.32 | – | –
C[C@@H](NC(=O)c1cc(NC(=O)CCC(O)(CCc2ccccc2)C(=O)N[C@H]2c3ccccc3C[C@H]2O)cc(N(C)S(C)(=O)=O)c1)c1ccccc1 (stereo in doubt; 36-(A)) | 0.57 | – | –
C[C@@H](NC(=O)c1cc(NC(=O)CCC(O)(CCc2ccccc2)C(=O)N[C@H]2c3ccccc3C[C@H]2O)cc(N(C)S(C)(=O)=O)c1)c1ccccc1 (stereo in doubt; 37-(B)) | 0.25 | > 5 | < 1
CC(C)[C@H](NC(=O)C(O)(CCC(=O)Nc1cc(C(=O)N[C@H](C)c2ccccc2)cc(N(C)S(C)(=O)=O)c1)CCc1ccccc1)C(=O)Nc1ccccc1 (stereo in doubt; 39-(A)) | 0.23 | > 5 | 1.2
